Assay results reported in US8030506B2, “Tumor selective and biodegradable cyclotriphosphazene-platinum(II) conjugate anticancer agent, and preparation method thereof” (Nanohybrid Co., Ltd, priority 2007, dated 2011).

Experiments:
Assay in all cases: In vitro cytotoxicity against human cancer cell lines
Details in all cases: read-out: In vitro cytotoxicities, IC50
SK-OV3 (ovarian cancer) = tested on: SK-OV3 (ovarian cancer)
MES-SA (uterine cancer) = tested on: MES-SA (uterine cancer)
A-431 (vulvar cancer) = tested on: A-431 (vulvar cancer)
MCF (breast cancer) = tested on: MCF (breast cancer)

Work on `N.N.O=C([O-])C1(C(=O)[O-])CCC1.[Pt+2]` [Carboplatin, carboplatin] yielded an IC50 (SK-OV3 (ovarian cancer)) of 76.5 µM, an IC50 (MES-SA (uterine cancer)) of 48 µM and an IC50 (A-431 (vulvar cancer)) of 45.9 µM. It also gave an IC50 (MCF (breast cancer)) of 48 µM.
